Measured values taken from US20260199305A1, “LONG-ACTING ORAL PHARMACEUTICAL COMPRISING HYPOXIA-INDUCIBLE FACTOR PROLYL HYDROLASE INHIBITOR AND USE THEREOF” (Kind Pharmaceutical, priority 2023, published 2026).
pIC50: −log10 of the molar value. Read-outs that look alike come from different tables or passages of the source.

How the values were obtained:
[1] = target: T1, HIF PHD-2 (Homo sapiens, UniProt Q9GZT9); test: Inhibitory effect on HIF PHD-2 (HIF-1α peptide hydroxylation, HPLC); assay type: biochemical; details: PHD2 enzyme, 30° C., 2 hours, read-out: IC50 against HIF PHD-2
T1 construct: purchased Active Motif
T1 sequence (Q9GZT9 whole entry): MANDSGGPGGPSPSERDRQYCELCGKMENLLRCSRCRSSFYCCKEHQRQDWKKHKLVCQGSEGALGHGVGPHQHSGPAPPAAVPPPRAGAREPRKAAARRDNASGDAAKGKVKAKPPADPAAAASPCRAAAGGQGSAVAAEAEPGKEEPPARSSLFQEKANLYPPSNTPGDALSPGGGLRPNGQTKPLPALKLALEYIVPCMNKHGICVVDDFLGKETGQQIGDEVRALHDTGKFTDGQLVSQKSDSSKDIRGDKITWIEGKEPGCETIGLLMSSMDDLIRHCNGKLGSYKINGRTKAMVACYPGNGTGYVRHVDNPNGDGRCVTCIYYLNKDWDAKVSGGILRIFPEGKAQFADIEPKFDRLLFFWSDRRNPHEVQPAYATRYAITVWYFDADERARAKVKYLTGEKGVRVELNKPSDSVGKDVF
Experimental: Stock solutions of the following reagents were prepared: HEPES buffer (pH 7.4, 50 mM), HIF-1α peptide (sequence: DLDLEMLAPYIPMDDDFQL; Genscript) solution in DMSO/HEPES (0.5 mM; preparation method: first prepare a 20 mM solution of this peptide in DMSO, then dilute it 40-fold with the HEPES buffer), ascorbic acid solution (10 mM), FeSO4 in hydrochloric acid solution (0.1 mM FeSO4, 10 μM HCl), 2-oxoglutaric acid solution (2-OG: 1 mM), EDTA solution (pH 8.0; 0.5 M), and eight concentrations of Comp-1/DMSO solutions (concentrations: 4000 μM, 1333 μM, 444.4 μM, 148.1 μM, 49.4 μM, 16.5 μM, 5.5 μM, and 1.82 μM). The following reagents were added to nine Eppendorf tubes: 50 μL HEPES solution, 10 μL ascorbic acid solution, 10 μL FeSO4 in HCl solution, 10 μL 2-OG solution, 10 μL HIF-1α peptide solution; then 5 μL of each of the eight Comp-1/DMSO solutions and 5 μL of DMSO were added separately; finally, 5 μL of PHD2 enzyme (Active Motif; concentration: 0.2 μg/μL) was added to each tube. Each of the resulting reaction systems was incubated at 30° C. in dark for 2 hours. Finally, 10 μL of EDTA solution was added to each tube to terminate the reaction. […] The concentrations of HIF-peptide and hydroxylated peptide were quantified using a UV absorption detector to calculate their ratio. The IC50 was calculated using GraphPad Prism 6.0 software.

[2] = Phase 1 single-dose and multiple-dose pharmacokinetics in healthy volunteers; assay type: in vivo, Humans; details: for half-life / Tmax: human, oral; for Tmax: read-out: median Tmax
Experimental: In a Phase 1, randomized, double-blind, placebo-controlled, single-dose and multiple-dose clinical study, a total of 46 healthy volunteers were assigned to one of six dose groups (1 mg, 4 mg, 10 mg, 20 mg, 30 mg, 50 mg) in a single-dose phase. In each dose group, 2 volunteers received a matching placebo. In the 1 mg dose group, 4 volunteers received a single dose of Comp-1 and in the remaining dose groups, 6 volunteers each received a single dose of Comp-1. Blood samples were collected from volunteers within 1 hour before dosing and at 0.5, 1, 1.5, 2, 3, 4, 5, 6, 7, 8, 10, 12, 24, 48, and 72 hours after dosing for pharmacokinetic (PK) analysis.
A total of 32 healthy volunteers were assigned to one of four dose groups (4 mg, 10 mg, 20 mg, 30 mg) in a multiple-dose phase. In each dose group, 2 volunteers received a matching placebo and 6 volunteers received Comp-1 once daily for 10 consecutive days. Blood samples for PK analysis were collected from volunteers within 1 hour before dosing and at 0.5, 1, 1.5, 2, 3, 4, 5, 6, 7, 8, 10, 12, and 24 hours after dosing on the first dosing day (i.e., Day 1), as well as within 1 hour before dosing and at 0.5, 1, 2, 3, 4, 5, 6, 7, 8, 10, 12, 24, 48, and 72 hours after dosing on Days 6, 7, 8, and 10.

[3] = test system: Normal Rats; test: Hemoglobin increase in normal rats, oral tiw vs qw for 4 weeks; assay type: in vivo, SD rats; set-up: Hemoglobin D0 / Hemoglobin D14: unit not given here; details: for Hemoglobin D0 / Hemoglobin D7 / Hemoglobin D14 / Hemoglobin D21 / Hemoglobin D28: oral; for Hemoglobin D0: day 0; for Hemoglobin D7: day 7; for Hemoglobin D14: day 14; for Hemoglobin D21: day 21; for Hemoglobin D28: day 28
Experimental: A total of 70 male SD rats, approximately 7 weeks old, were acclimated to the experimental environment for 10 days before the start of the experiment. Throughout the experiment, animals were housed in cages (5 rats per cage) in a conventional animal room with 24-hour continuous central air conditioning, temperature set at 24° C., and a 12-hour light/dark cycle. All rats had free access to food (dry pelleted food) and purified drinking water. The animals were randomly divided into 8 groups: the vehicle tiw group and vehicle qw group each contained 5 rats; Comp-1 3 mpk tiw, 6 mpk tiw, 10 mpk tiw, 9 mpk qw, 18 mpk qw, and 30 mpk qw, each contained 10 rats (mpk=mg/kg). The vehicle was 1 M aqueous meglumine solution. Each rat received oral gavage of the vehicle or the corresponding weight of Comp-1 vehicle solution according to its body weight and group assignment (tiw, qw) for a total of 4 weeks. Blood samples were collected from each rat on days 0, 7, 14, 21, and 28 to measure hemoglobin values (HGB, Hb). After tail snip blood collection, hemoglobin values were measured and read using a hemoglobin detector (HemoCue Hb 201+, produced by Radiometer). Quantitative data results were analyzed statistically using one-way analysis of variance (ANOVA) between groups, followed by Dunnett's multiple comparison method. Two-tailed analysis was used for statistics, and the statistical significance level was set at P<0.05.

[4] = after 10 consecutive days of dosing
[5] = multiple-dose phase, after the first dose

pIC50 [1]: 5.63
exposure (Css,max, AUC0-t, AUC0-t, and AUC0-inf) [2, 4]: increased in a dose-proportional manner
mean clearance (CL/F) [2, 4]: no dose-related trend
half-life ([2]; blood, after 10 consecutive days of once daily dosing, 4-30 mg, read-out: mean elimination half-life): 12.4 to 15.8 h
Tmax ([2]; blood, after 10 consecutive days of once daily dosing, 4-30 mg): 3 to 4 h
half-life ([2]; blood, multiple-dose phase, first dose on Day 1, 4-30 mg, read-out: mean half-life): 10.1 to 19.4 h
Tmax ([2]; blood, multiple-dose phase, first dose on Day 1, 4-30 mg): 2 to 3 h
half-life ([2]; in vivo, single-dose phase, 1-50 mg, healthy volunteers, read-out: mean elimination half-life (t½)): 13.1 to 19.7 h
Tmax ([2]; in vivo, single-dose phase, 1-50 mg, healthy volunteers): 3 to 4.5 h
CLF [2, 5]: no apparent trend with dose
exposure (Cmax, AUC0-t, and AUC0-inf) [2, 5]: increased with dose
exposure (Cmax, AUC0-t, and AUC0-inf) ([2]; single-dose phase): increased in a dose-proportional manner
mean clearance (CL/F) ([2]; single-dose phase): no dose-related trend
Compound: O=C(O)CNC(=O)C1=C(O)C2(CCCC2)n2c(ccc2-c2ccccc2)C1=O [Comp-1, (6′-hydroxy-8′-oxo-3′-phenyl-8′H-spiro[cyclopentane-1,5′-indolizine]-7′-carbonyl)glycine]
Hemoglobin D0 ([3]; 3 mg/kg, tiw): 16.42 ± 0.74
Hemoglobin D7 ([3]; 3 mg/kg, tiw): 18.32 ± 0.70
Hemoglobin D14 ([3]; 3 mg/kg, tiw): 19.06 ± 0.81
Hemoglobin D21 ([3]; 3 mg/kg, tiw): 18.09 ± 0.57
Hemoglobin D28 ([3]; 3 mg/kg, tiw): 18.97 ± 0.56
Hemoglobin D0 ([3]; 6 mg/kg, tiw): 17.4 ± 1.07
Hemoglobin D7 ([3]; 6 mg/kg, tiw): 18.76 ± 0.76
Hemoglobin D14 ([3]; 6 mg/kg, tiw): 20.15 ± 0.58
Hemoglobin D21 ([3]; 6 mg/kg, tiw): 19.49 ± 0.82
Hemoglobin D28 ([3]; 6 mg/kg, tiw): 21.26 ± 1.08
Hemoglobin D0 ([3]; 9 mg/kg, qw): 16.96 ± 0.82
Hemoglobin D7 ([3]; 9 mg/kg, qw): 17.57 ± 1.07
Hemoglobin D14 ([3]; 9 mg/kg, qw): 17.77 ± 2.01
Hemoglobin D21 ([3]; 9 mg/kg, qw): 17.73 ± 1.15
Hemoglobin D28 ([3]; 9 mg/kg, qw): 19.09 ± 1.44
Hemoglobin D0 ([3]; 10 mg/kg, tiw): 17.74 ± 1.06
Hemoglobin D7 ([3]; 10 mg/kg, tiw): 19.21 ± 0.71
Hemoglobin D14 ([3]; 10 mg/kg, tiw): 21.83 ± 1.18
Hemoglobin D21 ([3]; 10 mg/kg, tiw): 22.12 ± 1.40
Hemoglobin D28 ([3]; 10 mg/kg, tiw): 23.69 ± 1.31
Hemoglobin D0 ([3]; 18 mg/kg, qw): 17.2 ± 1.00
Hemoglobin D7 ([3]; 18 mg/kg, qw): 17.95 ± 0.88
Hemoglobin D14 ([3]; 18 mg/kg, qw): 18.57 ± 0.76
Hemoglobin D21 ([3]; 18 mg/kg, qw, in g/dL): 18.72 ± 0.92
Hemoglobin D28 ([3]; 18 mg/kg, qw): 18.99 ± 1.23
Hemoglobin D0 ([3]; 30 mg/kg, qw): 17.13 ± 1.17
Hemoglobin D7 ([3]; 30 mg/kg, qw, in g/dL): 19.33 ± 0.56
Hemoglobin D14 ([3]; 30 mg/kg, qw): 19.44 ± 1.07
Hemoglobin D21 ([3]; 30 mg/kg, qw, in g/dL): 20.04 ± 0.93
Hemoglobin D28 ([3]; 30 mg/kg, qw, in g/dL): 20.62 ± 0.76
hemoglobin levels compared with vehicle once weekly (qw) ([3]; day 28, the three once weekly (qw) groups): statistically significantly increased
